Measurements from patent US11975111B2, “Dactinomycin compositions and methods for the treatment of myelodysplastic syndrome and acute myeloid leukemia” (Tiziana Life Sciences PLC, priority 2016, dated 2024).
*1 amine or outer side, *2 acyl side, *3 side chain or, on linkers, in order; H or OH if unused. Where a SMILES comes first, the peptide text is derived from it. Bridges are numbered along the chain shown (N, C = ends). Roman numbers before positions name the chains, in order. [ ]: non-standard residue; d: D form. Actinocin(9to1) = Cc1c2oc3c(C)ccc(C(=O)[*:1])c3nc-2c(C(=O)[*:2])c(N)c1=O; NMeV = CN[CH](C(=O)O)C(C)C; Sar = CNCC(=O)O

Legend:
[1] = test system: NPM1-mutated cell line OCI/AML3; assay: Act-D induced nucleolar disintegration and apoptosis (NPM1/DAPI photographs); assay type: cell-based; conditions: OCI/AML3, FIG. 3
Excerpt: NPM1=Nucleophosmin and DAPI=4′,6-diamidino-2-phenylindole—a fluorescent stain that binds strongly to A-T rich regions in DNA.

p53 = assay: Western blots of p53 activation in patient tumor cells; assay type: cell-based, human; conditions: NPM1-mutated AML tumor cells contacted in vitro or in vivo, 2 cycles of 5 consecutive days at 12.5 μg/kg
NPM1-mutated AML = assay: Treatment of AML patients with dactinomycin alone or with low-dose cytarabine; assay type: in vivo, human
Description: FIG. 5 is a chart showing sequencing by the TruSight Myeloid Panel.—mutated genes (*).
FIG. 7 is a photograph of a computerized tomography (CT) scan showing pneumonitis in a subject administered dactinomycin at 15 μg/kg for 5 days.
FIGS. 9A and B are a pair of photographs depicting a bone marrow (BM) examination before and after therapy with dactinomycin alone.
Complete blood count (CBC) d=46, white blood cell 4130/mm^3, neutrophil percent (N=66%), hemoglobin (Hb)=7.7 g/dL, platelet (PLT) count 192.000/mm^3. Erythropoietin (EPO) dosage=17.8 mUl/ml (inappropriate response). Patient started on Darbopoetina.
Dactinomycin compositions of the disclosure may be administered with FLT3 inhibitors. […] There are two types of FLT3 mutations: internal tandem duplications (ITD) near the juxtamembrane domain of the receptor and point mutations in the activation loop of the tyrosine kinase domain (TKD mutations). TKD mutations comprise approximately 7% of patients, while ITD mutations are less prevalent in pediatrics and AML patients who were previously categorized as having MDS. (Fathi, A. T. et al. Eur. J. Haematol. 2017, 98: 330-336.)

[2] = Tolerability in rats, 0.5 mg/kg IV, body weight; assay type: in vivo; conditions: over 7 days post treatment
Description: (§1) Free and formulated actinomycin D (0.5 mg/kg) was administered via IV
(§2) In another experiment, rats were also administered a single dose (0.5 mg/kg) of free and formulated Act D via IV (intravenous) injection.

[3] = Plasma dactinomycin (CMAX, 6 hr) in rat tolerability study, 0.5 mg/kg IV; assay type: in vivo; conditions: rats, comparison in words
Description: as §1, §2

[4] = Pharmacokinetics in rats, single dose 0.3 mg/kg IV; assay type: in vivo
Description: Rats administered single dose (0.3 mg/kg) of unformulated and formulated Actinomycin D via IV injection. (FIG. 31)
Processed plasma samples at indicated times extracted in mixture of methanol and formic acid to determine total (free and encapsulated) API in systemic circulation.

[5] = Single dose intravenous tolerability in rats, 900 μg/kg; assay type: in vivo, Female Sprague Dawley rats; conditions: for clinical observations, signs of toxicity: post-dose observation
Description: A side by side comparison of the tolerability of free actinomycin D (i.e., not in a nanoparticle) and four compositions comprising actinomycin D nanoparticles (NP-ActD) formulations in rats when dosed by intravenous administration.
Female Sprague Dawley rats (HSd:SD), 6-8 weeks and 150-175 g at dosing were used for these studies. This is a single dose study with observations for 14 days post-dose. On day 1 of the study, each animal received either 900 μg/kg of the free actinomycin D or a NP-ActD formulations (900 μg/kg of the active) in a fixed volume of 1 mL/kg according to the study design in the Table below.
The following parameters were monitored: clinical observations daily, mortality, body weights, and food consumption. A full necropsy will be conducted on Day 14 post-dose, at which time organ weights and macroscopic findings will be determined. The organs will be preserved for future histology and the lungs, liver, pancreas, spleen, brain and kidneys will be frozen in liquid nitrogen for measurement of actinomycin D/NP-ActD accumulation.
Blood was collected for pharmacokinetic evaluation following dosing on Day 1 at 0.083, 0.25, 0.5, 1, 2, 6, and 24 hours post dose. Serum samples will be collected for clinical chemistry and whole blood samples for hematology.

[6] = cited from earlier work

SMILES: Cc1c2oc3c(C)ccc(C(=O)NC4C(=O)NC(C(C)C)C(=O)N5CCCC5C(=O)N(C)CC(=O)N(C)C(C(C)C)C(=O)OC4C)c3nc-2c(C(=O)NC2C(=O)NC(C(C)C)C(=O)N3CCCC3C(=O)N(C)CC(=O)N(C)C(C(C)C)C(=O)OC2C)c(N)c1=O (stereo not drawn) [dactinomycin, 2-amino-N,N′-bis(hexadecahydro-2,5,9-trimethyl-6,13-bis(1-methylethyl)-1,4,7,11,14-pentaoxo-1H-pyrrolo(2,1-I)(1,4,7,10,13)oxatetra-azacyclohexadecin-10-yl)-4,6-dimethyl-3-oxo-3H-phenoxazine-1,9-dicarboxamide] (I: TVP[Sar][NMeV] / II: TVP[Sar][NMeV]; ester I:1-I:C, II:1-II:C; linker I:N-II:N via Actinocin(9to1); configuration not given here)
- nucleolar disintegration and apoptosis [1]: induced nucleolar disintegration and apoptosis
- p53 activation (Western blot) (p53): p53 activation
- mutated genes by TruSight Myeloid Panel sequencing after treatment (NPM1-mutated AML; Patient, FIG. 5): NMP1, IDH2 and STAG2 mutations not detected
- bone marrow (BM) examination after therapy (NPM1-mutated AML; before and after therapy): marked reduction of leukemic blast infiltration with partial normal hematopoietic recovery
- efficacy in clinical trials (NPM1-mutated AML; clinical trials, AML patients): about 60 % of the patients treated
- hematological recovery (NPM1-mutated AML; following one cycle of treatment, FIG. 8): hematological recovery
- CT scan finding (NPM1-mutated AML; subject administered 15 μg/kg for 5 days): pneumonitis
- body weight ([2]; listed as free API): significant decrease in body weight
- body weight ([2]; listed as free dactinomycin): significant decrease in body weight
- body weight ([2]; listed as unformulated API): adverse effect on body weight
- CMAX, total (free and encapsulated) dactinomycin in plasma [3]: lower
- Theoretical Cmax in Humans ([4]; extrapolated to humans): 7.5 ng/mL
- Cmax ([4]; rat, plasma, 0.3 mg/kg, rats, IV): 60 ng/mL
- mortality rate ([5]; 13 days post-dose): about 80%
- additional animals euthanized ([5]; Day 7 post dose, 6 rats per group): two
- more animals euthanized ([5]; Day 9, 6 rats per group): two
- animals moribund and euthanized ([5]; day 6 post-dose, 6 rats per group): 1 animal
- body weights ([5]; rats, 900 μg/kg IV single dose, FIG. 32): consistently decreased body weights
- clinical observations, signs of toxicity ([5]; rats, 900 μg/kg IV single dose, listed as free Act D): piloerection, decreased activity, bleeding at the nares, and hunched posture
- clinical observations, signs of toxicity ([5]; rats, 900 μg/kg IV single dose, listed as free ActD): piloerection and discolored urine
- animals remained ([5]; thirteen days post-dose): 1/6
- AUC0-6 hrs in patients showing adverse events ([6]; patients showing adverse events, IV 1 mg/m^2 or 1.5 mg/m^2): 4 mg·min/L
- AUC0-6 hrs, patients with adverse events versus without ([6]; ratio): 1.46 times higher
- AUC0-6 hrs in subjects not showing adverse events ([6]; subjects not showing adverse events, IV 1 mg/m^2 or 1.5 mg/m^2): 2.67 mg·min/L
